Experimental data: publication PMC10540511 (Cellular and molecular life sciences : CMLS, 2023)
Like-named read-outs stand apart in the source and are kept apart here.

Key:
CBM98 (BoGH13ASus CBM98) = biological target: T1, CBM98 (BoGH13ASus CBM98) (Bacteroides ovatus, UniProt A0ABU3ISA0); test: isothermal titration calorimetry; format: binding; conditions: read-out: Kd (μM) ± SD; 25 °C, 20 mM HEPES pH 7.0, 100 mM NaCl
T1 sequence (A0ABU3ISA0 22-143): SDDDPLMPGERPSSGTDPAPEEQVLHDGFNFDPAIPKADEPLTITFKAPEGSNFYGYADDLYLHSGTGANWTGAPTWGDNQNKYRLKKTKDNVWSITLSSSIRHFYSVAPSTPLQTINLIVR

[1] = biological target: T2, CBM98-CBM48 (BoGH13ASus CBM98-CBM48) (Bacteroides ovatus, UniProt A0ABU3ISA0); test: isothermal titration calorimetry; format: binding; conditions: read-out: Kd (μM) ± SD, 25 °C, 20 mM HEPES pH 7.0, 100 mM NaCl
T2 sequence (A0ABU3ISA0 22-296): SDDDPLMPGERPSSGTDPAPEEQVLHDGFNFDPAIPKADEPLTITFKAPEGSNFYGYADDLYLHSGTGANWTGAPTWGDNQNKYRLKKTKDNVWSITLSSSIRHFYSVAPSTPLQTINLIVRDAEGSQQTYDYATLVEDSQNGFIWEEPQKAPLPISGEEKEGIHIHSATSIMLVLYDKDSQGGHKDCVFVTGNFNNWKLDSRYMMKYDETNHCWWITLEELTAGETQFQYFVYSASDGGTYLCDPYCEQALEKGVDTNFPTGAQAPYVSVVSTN

[2] = standard-volume instrument, 25 μM protein

Compound | Kd (CBM98 (BoGH13ASus CBM98)) [µM] | Kd [1] [µM] | Kd [1, 2] [µM]
OC[C@H]1O[C@H](O[C@H]2[C@H](O)[C@@H](O)[C@@H](O[C@H]3[C@H](O)[C@@H](O)[C@@H](O[C@H]4[C@H](O)[C@@H](O)[C@@H](O[C@H]5[C@H](O)[C@@H](O)[C@@H](O[C@H]6[C@H](O)[C@@H](O)[C@@H](O[C@H]7[C@H](O)[C@@H](O)C(O)O[C@@H]7CO)O[C@@H]6CO)O[C@@H]5CO)O[C@@H]4CO)O[C@@H]3CO)O[C@@H]2CO)[C@H](O)[C@@H](O)[C@@H]1O (stereo partly drawn) [G7, maltoheptaose] | 32 ± 9.8 | 33 ± 9.9 | 
OC[C@H]1O[C@@H]2O[C@H]3[C@H](O)[C@@H](O)[C@@H](O[C@H]4[C@H](O)[C@@H](O)[C@@H](O[C@H]5[C@H](O)[C@@H](O)[C@@H](O[C@H]6[C@H](O)[C@@H](O)[C@@H](O[C@H]7[C@H](O)[C@@H](O)[C@@H](O[C@H]1[C@H](O)[C@H]2O)O[C@@H]7CO)O[C@@H]6CO)O[C@@H]5CO)O[C@@H]4CO)O[C@@H]3CO [αCD, α-cyclodextrin] | 42 ± 13 |  | 43 ± 18
OC[C@H]1O[C@@H]2O[C@H]3[C@H](O)[C@@H](O)[C@@H](O[C@H]4[C@H](O)[C@@H](O)[C@@H](O[C@H]5[C@H](O)[C@@H](O)[C@@H](O[C@H]6[C@H](O)[C@@H](O)[C@@H](O[C@H]7[C@H](O)[C@@H](O)[C@@H](O[C@H]8[C@H](O)[C@@H](O)[C@@H](O[C@H]1[C@H](O)[C@H]2O)O[C@@H]8CO)O[C@@H]7CO)O[C@@H]6CO)O[C@@H]5CO)O[C@@H]4CO)O[C@@H]3CO [βCD, β-cyclodextrin] | 26 ± 3.8 |  | 21 ± 1.4
